Experimental data published in ChEMBL document CHEMBL5543145, “Discovery of the First-in-Class G9a/GLP PROTAC Degrader” (J Med Chem, 2024).
The source made the active and inactive calls. No cut-off for these calls is given here.

Columns and labels:
[1] = target: T1, von Hippel-Lindau disease tumor suppressor/Histone-lysine N-methyltransferase EHMT2 (Homo sapiens, UniProt Q96KQ7+P40337); assay: PROTAC activity at G9a/VHL in human 22Rv1 cells assessed as induction of G9a degradation at 3 uM incubated for 24 hrs by Western blot analysis relative to control; type: cell-based
[2] = target: T2, von Hippel-Lindau disease tumor suppressor/Histone-lysine N-methyltransferase EHMT1 (Homo sapiens, UniProt Q9H9B1+P40337); assay: PROTAC activity at GLP/VHL in human 22Rv1 cells assessed as induction of GLP degradation at 3 uM incubated for 24 hrs by Western blot analysis relative to control; type: cell-based
Target sequence in this assay (P40337 whole entry partner): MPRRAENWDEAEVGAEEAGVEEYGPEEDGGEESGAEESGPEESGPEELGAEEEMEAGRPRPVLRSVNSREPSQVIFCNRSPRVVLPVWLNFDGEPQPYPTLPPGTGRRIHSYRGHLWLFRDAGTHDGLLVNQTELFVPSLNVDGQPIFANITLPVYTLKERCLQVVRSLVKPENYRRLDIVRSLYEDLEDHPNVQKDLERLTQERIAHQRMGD
Target sequence in this assay (Q9H9B1 2-1298 limits assumed): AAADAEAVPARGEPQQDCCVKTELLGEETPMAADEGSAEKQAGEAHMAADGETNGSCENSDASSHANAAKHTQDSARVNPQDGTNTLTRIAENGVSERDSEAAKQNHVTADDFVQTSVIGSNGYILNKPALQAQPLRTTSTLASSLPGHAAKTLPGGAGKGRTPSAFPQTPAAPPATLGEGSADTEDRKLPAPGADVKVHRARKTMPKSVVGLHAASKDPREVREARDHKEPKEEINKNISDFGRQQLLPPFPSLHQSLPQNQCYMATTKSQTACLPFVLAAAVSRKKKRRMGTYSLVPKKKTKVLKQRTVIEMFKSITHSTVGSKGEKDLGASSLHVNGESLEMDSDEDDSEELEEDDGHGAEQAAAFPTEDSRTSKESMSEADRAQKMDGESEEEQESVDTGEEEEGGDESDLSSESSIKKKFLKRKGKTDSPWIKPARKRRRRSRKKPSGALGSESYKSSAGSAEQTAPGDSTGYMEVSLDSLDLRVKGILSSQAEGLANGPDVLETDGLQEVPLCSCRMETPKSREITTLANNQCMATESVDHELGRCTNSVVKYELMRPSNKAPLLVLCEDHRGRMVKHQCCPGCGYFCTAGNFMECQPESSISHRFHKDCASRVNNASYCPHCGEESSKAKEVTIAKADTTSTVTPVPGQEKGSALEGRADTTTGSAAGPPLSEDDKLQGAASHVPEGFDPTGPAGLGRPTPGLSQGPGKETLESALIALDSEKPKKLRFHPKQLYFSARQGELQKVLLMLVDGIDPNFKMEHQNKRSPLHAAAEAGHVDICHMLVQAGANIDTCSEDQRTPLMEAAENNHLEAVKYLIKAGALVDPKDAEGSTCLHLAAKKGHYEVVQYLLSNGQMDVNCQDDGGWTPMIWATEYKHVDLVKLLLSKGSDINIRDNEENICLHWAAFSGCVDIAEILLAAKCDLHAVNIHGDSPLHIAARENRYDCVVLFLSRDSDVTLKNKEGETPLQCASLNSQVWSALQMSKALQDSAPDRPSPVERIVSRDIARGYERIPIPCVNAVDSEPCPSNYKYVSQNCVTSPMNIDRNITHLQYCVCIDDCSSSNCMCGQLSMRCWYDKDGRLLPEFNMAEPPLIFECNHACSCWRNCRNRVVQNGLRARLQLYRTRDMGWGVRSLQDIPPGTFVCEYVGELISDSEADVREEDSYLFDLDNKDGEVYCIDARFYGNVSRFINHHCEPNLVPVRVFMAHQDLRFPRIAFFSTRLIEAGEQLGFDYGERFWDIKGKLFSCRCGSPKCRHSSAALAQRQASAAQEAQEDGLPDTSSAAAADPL

K562 = assay: Cytotoxicity against human K562 cells assessed as reduction in cell viability incubated for 8 days; type: functional, cell-based; conditions: K562, 192 h
[3] = target: T2, von Hippel-Lindau disease tumor suppressor/Histone-lysine N-methyltransferase EHMT1; assay: PROTAC activity at GLP/VHL in human 22Rv1 cells assessed as induction of GLP degradation at 3 uM measured at 24 to 48 hrs by Western blot analysis; type: cell-based; conditions: time 24-48 hrs
Target sequence in this assay (P40337 whole entry partner): as the sequence (P40337 whole entry partner) above
Target sequence in this assay (Q9H9B1 2-1298 limits assumed): as the sequence (Q9H9B1 2-1298 limits assumed) above

[4] = target: Histone-lysine N-methyltransferase, H3 lysine-79 specific (Homo sapiens) (UniProt Q8TEK3); assay: Inhibition of DOT1L (unknown origin) at 10 uM relative to control
[5] = target: T2, von Hippel-Lindau disease tumor suppressor/Histone-lysine N-methyltransferase EHMT1; assay: PROTAC activity at GLP/VHL in human 22Rv1 cells assessed as effect on VHL level at 3 uM incubated for 24 hrs by RT-qPCR analysis; type: cell-based
Target sequence in this assay (P40337 whole entry partner): as the sequence (P40337 whole entry partner) above
Target sequence in this assay (Q9H9B1 2-1298 limits assumed): as the sequence (Q9H9B1 2-1298 limits assumed) above

[6] = target: T2, von Hippel-Lindau disease tumor suppressor/Histone-lysine N-methyltransferase EHMT1; assay: PROTAC activity at GLP/VHL in human K562 cells assessed as induction of GLP degradation at 3 uM incubated for 24 hrs by Western blot analysis; type: cell-based
Target sequence in this assay (P40337 whole entry partner): as the sequence (P40337 whole entry partner) above
Target sequence in this assay (Q9H9B1 2-1298 limits assumed): as the sequence (Q9H9B1 2-1298 limits assumed) above

[7] = target: Histone-lysine N-methyltransferase, H3 lysine-36 specific (Homo sapiens) (UniProt Q96L73); assay: Inhibition of NSD1 (unknown origin) at 10 uM relative to control
[8] = target: PRMT5/MEP50 complex (Homo sapiens) (UniProt O14744+Q9BQA1); assay: Inhibition of PRMT5/MEP50 (unknown origin) at 10 uM relative to control; type: protein-complex assay
[9] = target: Histone-arginine methyltransferase CARM1 (Homo sapiens) (UniProt Q86X55); assay: Inhibition of PRMT4 (unknown origin) at 10 uM relative to control
[10] = target: T1, von Hippel-Lindau disease tumor suppressor/Histone-lysine N-methyltransferase EHMT2; assay: PROTAC activity at G9a/VHL in human K562 cells assessed as induction of G9a degradation at 3 uM incubated for 24 hrs by Western blot analysis; type: cell-based
[11] = target: T2, von Hippel-Lindau disease tumor suppressor/Histone-lysine N-methyltransferase EHMT1; assay: PROTAC activity at GLP/VHL in human 22Rv1 cells assessed as induction of GLP degradation incubated for 24 hrs by Western blot analysis; type: cell-based
[12] = Cmax in C57BL6 mouse plasma at 50 mg/kg, ip measured at 8 hrs by LC-MS/MS analysis; type: ADME, organism-based
[13] = target: T2, von Hippel-Lindau disease tumor suppressor/Histone-lysine N-methyltransferase EHMT1; assay: PROTAC activity at GLP/VHL in human 22Rv1 cells assessed as effect on GLP level upto 3 uM measured for 24 hrs by Western blot analysis; type: cell-based
Target sequence in this assay (P40337 whole entry partner): as the sequence (P40337 whole entry partner) above
Target sequence in this assay (Q9H9B1 2-1298 limits assumed): as the sequence (Q9H9B1 2-1298 limits assumed) above

[14] = target: T2, von Hippel-Lindau disease tumor suppressor/Histone-lysine N-methyltransferase EHMT1; assay: PROTAC activity at GLP/VHL in human NCI-H1299 cells assessed as induction of GLP degradation at 3 uM incubated for 24 hrs by Western blot analysis; type: cell-based
Target sequence in this assay (P40337 whole entry partner): as the sequence (P40337 whole entry partner) above
Target sequence in this assay (Q9H9B1 2-1298 limits assumed): as the sequence (Q9H9B1 2-1298 limits assumed) above

[15] = target: T1, von Hippel-Lindau disease tumor suppressor/Histone-lysine N-methyltransferase EHMT2; assay: PROTAC activity at G9a/VHL in human 22Rv1 cells assessed as effect on G9a level at 3 uM incubated for 24 hrs by RT-qPCR analysis; type: cell-based
[16] = target: Histone-lysine N-methyltransferase EZH2 (Homo sapiens) (UniProt Q15910); assay: Inhibition of EZH2 (unknown origin) at 10 uM relative to control
[17] = target: Histone-lysine N-methyltransferase SUV39H1 (Homo sapiens) (UniProt O43463); assay: Inhibition of SUV39H1 (unknown origin) at 10 uM relative to control
CWR22R [18] = assay: Inhibition of colony formation in human 22Rv1 cells upto 3 uM incubated for 8 days by ethyl violet staining based analysis; type: functional, cell-based; conditions: time 8.0 day
[19] = target: T1, von Hippel-Lindau disease tumor suppressor/Histone-lysine N-methyltransferase EHMT2; assay: PROTAC activity at G9a/VHL in human 22Rv1 cells assessed as effect on G9a level upto 3 uM measured for 24 hrs by Western blot analysis; type: cell-based
[20] = target: Protein arginine N-methyltransferase 3 (Homo sapiens) (UniProt O60678); assay: Inhibition of PRMT3 (unknown origin) at 10 uM relative to control
[21] = target: T2, von Hippel-Lindau disease tumor suppressor/Histone-lysine N-methyltransferase EHMT1; assay: PROTAC activity at GLP/VHL in human 22Rv1 cells assessed as induction of GLP degradation at 3 uM by Western blot analysis; type: cell-based; conditions: time <= 48.0 hrs, TDE = time-dependent effect
[22] = target: Protein arginine N-methyltransferase 7 (Homo sapiens) (UniProt Q9NVM4); assay: Inhibition of PRMT7 (unknown origin) at 10 uM relative to control
[23] = target: Histone-lysine N-methyltransferase EZH1 (Homo sapiens) (UniProt Q92800); assay: Inhibition of EZH1 (unknown origin) at 10 uM relative to control
[24] = target: T1, von Hippel-Lindau disease tumor suppressor/Histone-lysine N-methyltransferase EHMT2; assay: PROTAC activity at G9a/VHL in human 22Rv1 cells assessed as induction of G9a degradation at 3 uM by Western blot analysis; type: cell-based; conditions: time <= 48.0 hrs, TDE = time-dependent effect
[25] = target: T1, von Hippel-Lindau disease tumor suppressor/Histone-lysine N-methyltransferase EHMT2; assay: PROTAC activity at G9a/VHL in human 22Rv1 cells assessed as induction of G9a degradation at 1 uM incubated for 24 hrs by Western blot analysis; type: cell-based
[26] = target: Histone-lysine N-methyltransferase SETD1B (Homo sapiens) (UniProt Q9UPS6); assay: Inhibition of SET1b (unknown origin) at 10 uM relative to control
NCI-H1299 = assay: Cytotoxicity against human NCI-H1299 cells assessed as growth inhibition incubated for 8 days; type: functional; conditions: NCI-H1299, 192 h, time 8 day
[27] = target: Protein arginine N-methyltransferase 6 (Homo sapiens) (UniProt Q96LA8); assay: Inhibition of PRMT6 (unknown origin) at 10 uM relative to control
[28] = target: T1, von Hippel-Lindau disease tumor suppressor/Histone-lysine N-methyltransferase EHMT2; assay: PROTAC activity at G9a/VHL in human 22Rv1 cells assessed as induction of G9a degradation at 1 uM pretreated with VHL-1 for 2 hrs followed by compound administration and measured after 24 hrs by Western blot analysis; type: cell-based
[29] = target: Histone-lysine N-methyltransferase SMYD3 (Homo sapiens) (UniProt Q9H7B4); assay: Inhibition of SMYD3 (unknown origin) at 10 uM relative to control
CWR22R [30] = assay: Cytotoxicity against human 22Rv1 cells assessed as growth inhibition measured for 7 days; type: functional; conditions: 22Rv1, 168 h, time 7 day
[31] = target: T2, von Hippel-Lindau disease tumor suppressor/Histone-lysine N-methyltransferase EHMT1; assay: PROTAC activity at GLP/VHL in human 22Rv1 cells assessed as induction of GLP degradation at 1 uM incubated for 24 hrs by Western blot analysis; type: cell-based
[32] = target: Histone-lysine N-methyltransferase SETD7 (Homo sapiens) (UniProt Q8WTS6); assay: Inhibition of SET7/9 (unknown origin) at 10 uM relative to control
[33] = target: T2, von Hippel-Lindau disease tumor suppressor/Histone-lysine N-methyltransferase EHMT1; assay: PROTAC activity at GLP/VHL in human 22Rv1 cells assessed as induction of GLP degradation at 3 uM measured at 4 hrs by Western blot analysis; type: cell-based
[34] = target: T2, von Hippel-Lindau disease tumor suppressor/Histone-lysine N-methyltransferase EHMT1; assay: PROTAC activity at GLP/VHL in human 22Rv1 cells assessed as induction of GLP degradation at 0.3 uM incubated for 24 hrs by Western blot analysis relative to control; type: cell-based

T1 sequence (P40337 whole entry partner): as the sequence (P40337 whole entry partner) above
T1 sequence (Q96KQ7 2-1210 limits assumed): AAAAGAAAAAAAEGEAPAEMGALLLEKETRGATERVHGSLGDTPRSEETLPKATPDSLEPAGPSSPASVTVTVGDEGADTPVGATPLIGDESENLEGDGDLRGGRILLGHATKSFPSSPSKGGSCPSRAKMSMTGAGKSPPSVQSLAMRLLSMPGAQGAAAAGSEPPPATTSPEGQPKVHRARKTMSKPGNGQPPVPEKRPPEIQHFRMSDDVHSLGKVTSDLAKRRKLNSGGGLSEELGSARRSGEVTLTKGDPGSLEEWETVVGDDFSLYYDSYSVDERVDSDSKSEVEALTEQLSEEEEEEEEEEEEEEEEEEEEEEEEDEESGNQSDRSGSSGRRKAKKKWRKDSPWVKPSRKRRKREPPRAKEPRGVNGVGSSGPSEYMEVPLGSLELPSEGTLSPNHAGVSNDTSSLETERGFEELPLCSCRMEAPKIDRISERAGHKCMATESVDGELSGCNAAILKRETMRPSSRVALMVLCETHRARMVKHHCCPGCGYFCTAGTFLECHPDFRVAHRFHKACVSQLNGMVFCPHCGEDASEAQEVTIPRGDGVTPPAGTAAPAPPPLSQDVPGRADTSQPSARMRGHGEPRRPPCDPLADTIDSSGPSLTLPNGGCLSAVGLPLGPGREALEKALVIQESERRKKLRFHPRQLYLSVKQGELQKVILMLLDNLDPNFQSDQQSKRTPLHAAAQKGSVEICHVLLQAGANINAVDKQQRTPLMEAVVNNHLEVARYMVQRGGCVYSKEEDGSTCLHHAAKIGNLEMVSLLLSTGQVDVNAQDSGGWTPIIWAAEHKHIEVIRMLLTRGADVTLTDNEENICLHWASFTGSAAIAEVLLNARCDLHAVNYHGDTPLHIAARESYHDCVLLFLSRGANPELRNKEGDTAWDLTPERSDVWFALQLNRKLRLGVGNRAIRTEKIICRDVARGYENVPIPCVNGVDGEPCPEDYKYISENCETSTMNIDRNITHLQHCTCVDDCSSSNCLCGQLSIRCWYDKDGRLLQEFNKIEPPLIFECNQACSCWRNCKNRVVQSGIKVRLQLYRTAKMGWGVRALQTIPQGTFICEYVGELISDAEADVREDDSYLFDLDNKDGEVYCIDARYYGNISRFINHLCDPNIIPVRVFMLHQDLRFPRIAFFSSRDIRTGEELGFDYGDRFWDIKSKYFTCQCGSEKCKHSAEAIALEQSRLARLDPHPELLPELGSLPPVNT
Chain of Histone-lysine N-methyltransferase SUV39H1 (Homo sapiens) (O43463 whole entry): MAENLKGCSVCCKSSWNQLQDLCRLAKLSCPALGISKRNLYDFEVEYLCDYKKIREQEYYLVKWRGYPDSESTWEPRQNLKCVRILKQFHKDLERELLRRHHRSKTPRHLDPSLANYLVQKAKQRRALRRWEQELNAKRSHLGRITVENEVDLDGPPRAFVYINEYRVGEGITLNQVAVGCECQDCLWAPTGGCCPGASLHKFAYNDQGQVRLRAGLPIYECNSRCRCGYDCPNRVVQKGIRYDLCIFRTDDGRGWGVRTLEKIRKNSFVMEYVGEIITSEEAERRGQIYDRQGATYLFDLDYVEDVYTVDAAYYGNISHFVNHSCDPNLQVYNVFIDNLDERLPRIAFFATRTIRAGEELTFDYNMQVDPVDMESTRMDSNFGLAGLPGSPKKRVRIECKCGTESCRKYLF
Chain of Protein arginine N-methyltransferase 6 (Homo sapiens) (Q96LA8 whole entry, looked up): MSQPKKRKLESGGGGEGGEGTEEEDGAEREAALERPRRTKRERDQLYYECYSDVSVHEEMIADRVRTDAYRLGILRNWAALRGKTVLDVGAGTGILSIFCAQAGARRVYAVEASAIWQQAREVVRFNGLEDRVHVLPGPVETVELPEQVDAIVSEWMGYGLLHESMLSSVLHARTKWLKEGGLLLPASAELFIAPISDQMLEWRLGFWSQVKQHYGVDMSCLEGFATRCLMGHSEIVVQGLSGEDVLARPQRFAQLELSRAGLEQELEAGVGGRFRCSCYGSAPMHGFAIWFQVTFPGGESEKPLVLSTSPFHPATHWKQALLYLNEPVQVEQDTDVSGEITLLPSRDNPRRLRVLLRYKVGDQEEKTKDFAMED
Chain of Histone-lysine N-methyltransferase SMYD3 (Homo sapiens) (Q9H7B4 whole entry): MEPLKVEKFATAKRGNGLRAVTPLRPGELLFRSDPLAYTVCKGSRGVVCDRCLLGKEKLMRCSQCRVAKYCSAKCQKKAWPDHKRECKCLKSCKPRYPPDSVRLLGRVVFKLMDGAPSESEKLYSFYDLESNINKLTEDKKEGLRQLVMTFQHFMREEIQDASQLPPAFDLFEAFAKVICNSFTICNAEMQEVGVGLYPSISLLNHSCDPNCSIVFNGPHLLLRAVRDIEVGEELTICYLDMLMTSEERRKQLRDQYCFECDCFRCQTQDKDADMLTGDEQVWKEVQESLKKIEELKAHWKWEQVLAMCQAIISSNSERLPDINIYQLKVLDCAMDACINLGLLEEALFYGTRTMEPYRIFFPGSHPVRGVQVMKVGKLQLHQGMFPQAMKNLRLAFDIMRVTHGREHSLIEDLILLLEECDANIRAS
Chain of Histone-lysine N-methyltransferase SETD7 (Homo sapiens) (Q8WTS6 whole entry): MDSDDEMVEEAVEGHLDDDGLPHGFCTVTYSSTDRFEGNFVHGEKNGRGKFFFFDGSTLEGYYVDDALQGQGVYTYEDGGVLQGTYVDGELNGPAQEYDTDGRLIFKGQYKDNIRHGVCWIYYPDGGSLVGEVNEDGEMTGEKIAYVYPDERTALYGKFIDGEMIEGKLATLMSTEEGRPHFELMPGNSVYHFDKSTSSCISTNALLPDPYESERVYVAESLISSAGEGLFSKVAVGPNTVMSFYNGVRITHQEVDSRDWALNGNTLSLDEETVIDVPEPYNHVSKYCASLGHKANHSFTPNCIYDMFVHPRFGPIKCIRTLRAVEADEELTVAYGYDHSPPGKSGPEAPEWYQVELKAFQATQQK

Emax [1]: > 99% | Emax [2]: > 99% | Activity [3]: 100% | inhibition [4]: > 50% | Activity [5]: Active | Activity [6]: Active | inhibition [7]: > 50% | inhibition [8]: > 50% | inhibition [9]: > 50% | Activity [10]: Active | DC50 [11]: 0.26 µM | Cmax [12]: > 5 µM | Activity [13]: Active | Activity [14]: Active | Activity [15]: Active | inhibition [16]: > 50% | inhibition [17]: > 50% | Activity [19]: Active | inhibition [20]: > 50% | Activity [21]: Tde | inhibition [22]: > 50% | inhibition [23]: > 50% | Activity [24]: Tde | Activity [25]: Active | inhibition [26]: > 50% | inhibition [27]: > 50% | Activity [28]: Active | inhibition [29]: > 50% | Activity [31]: Active | inhibition [32]: > 50% | Activity [33]: Active | Emax [34]: 49%
Structure (SMILES): COc1cc2c(NC3CCN(CCCC(=O)NCCCCCCCCCCCC(=O)N[C@H](C(=O)N4C[C@H](O)C[C@H]4C(=O)NCc4ccc(-c5scnc5C)cc4)C(C)(C)C)CC3)nc(N3CCC(F)(F)CC3)nc2cc1OCCCN1CCCC1
IC50 (K562): 2 µM | inhibition (CWR22R [18]): Active | GI50 (NCI-H1299): 5 µM | GI50 (CWR22R [30]): 4.1 µM
